# Several values for one entry are separate records, joined by “and”; a condition that tells them apart may be missing. Identical values can stand only once. Like-named read-outs stand apart in the source and are kept apart here.
# Key:
# [1] = Plasma concentration of Formula I at midpoint time of post dosing PET scans; type: in vivo; settings: male, human; for concentration at 24 h: day 14, 24 h post last dose
# Text: In alternative embodiments, provided are methods comprising administering a drug in an amount sufficient to achieve a therapeutic level range of plasma concentration (optionally human plasma concentration) at a steady state, and this example describes an exemplary analytical method to determine the concentration of Formula I in human plasma using an LC-MS-MS method known to the people skilled in the art, and an exemplary bioanalysis method to determine the concentration of formula I in human EDTA plasma.
# A LC-MS/MS method was developed and validated for the quantitation of Formula I in 0.250 mL of human EDTA plasma in a total of 7 runs, out of which 1 run was rejected. The method utilized stable labeled Formula I as an internal standard. After the addition of the internal standard (equivalent to 285.4 ng/mL in human EDTA plasma) and 0.250 mL of each quality control (QC) sample and calibration standard, 0.525 mL of methyl t-butyl ether (MTBE) was added to the 96-well sample tubes. The organic layer was removed and evaporated to dryness using a liquid-liquid extraction (LLE). The residue was reconstituted and injected into the LC-MS/MS system. Chromatographic separation was achieved through gradient elution on an Acquity UPLC, BEH Shield RP18™, 50×2.1 mm, 1.7 μm particle size column. The mobile phase contained water, acetonitrile, ammonium formate, and formic acid. Detection was accomplished using a Sciex API 4000 tandem mass spectrometer in positive ion electrospray SRM mode. The standard curves, which ranged from 1.00 to 1000 ng/mL for Formula I, were fitted to a 1/×2 weighted linear regression model. The intra-assay precisions, based on four levels of analytical QCs (low, mid, GM, and high), were within 4.2% CV and inter-assay precisions were within 7.2% CV for the analyte. The assay accuracy, expressed as % DEV, was within 6.4% of the nominal concentration values for the analyte. […] The LLOQ response ratio, when compared to the QCO response ratio, was >, 5 in all matrix lots. The analyte was stable in human EDTA plasma for at least 24 h at room temperature, for at least 14 days at −20° C., and following at least 3 freeze-thaw cycles. The processed samples were stable for 72 hours (h) at room temperature.
# (§1) Striatal receptor occupancy at dopamine transporters (DAT) and serotonin transporters (SERT) with plasma concentrations of Formula I at the midpoint time of the post dosing PET (positron emission tomography) scans (T=4 and 24) after once-a-day multiple doses of 3-60 mg and 10-60 mg for SERT and DAT healthy male cohorts, respectively (Tables below, RO stands for receptor occupancy). Post dosing PET scans were conducted at day 10 (4 h post last dose) and day 14 (24 h post last dose) assuming steady state conditions, using the specific DAT and SERT tracers ^11C-PE2I and ^11C-MADAM, respectively. For 45 mg and 60 mg cohorts, there was titration by administration of 30 mg for 3 days and then from day 4 the specified dose. Representative reports on using these two tracers are Leamed-Coughlin S M et al, Biol Psychiatry. 2003, 54(8):800-5; Jucaite A et al, Eur J Nucl Med Mol Imaging. 2006, 33(6):657-68; and Lundberg J et al, Int J Neuropsychopharmacol. 2007, 10(6):777-85.
# [2] = biological target: Transporter, Norepinephrine (NET) (Homo sapiens, UniProt P23975); test: NET radioligand binding ([125I] RTI-55), Eurofins; settings: read-out: NET, % inhibition, 10 nM compound
# Sequence of Transporter, Norepinephrine (NET) (P23975 whole entry): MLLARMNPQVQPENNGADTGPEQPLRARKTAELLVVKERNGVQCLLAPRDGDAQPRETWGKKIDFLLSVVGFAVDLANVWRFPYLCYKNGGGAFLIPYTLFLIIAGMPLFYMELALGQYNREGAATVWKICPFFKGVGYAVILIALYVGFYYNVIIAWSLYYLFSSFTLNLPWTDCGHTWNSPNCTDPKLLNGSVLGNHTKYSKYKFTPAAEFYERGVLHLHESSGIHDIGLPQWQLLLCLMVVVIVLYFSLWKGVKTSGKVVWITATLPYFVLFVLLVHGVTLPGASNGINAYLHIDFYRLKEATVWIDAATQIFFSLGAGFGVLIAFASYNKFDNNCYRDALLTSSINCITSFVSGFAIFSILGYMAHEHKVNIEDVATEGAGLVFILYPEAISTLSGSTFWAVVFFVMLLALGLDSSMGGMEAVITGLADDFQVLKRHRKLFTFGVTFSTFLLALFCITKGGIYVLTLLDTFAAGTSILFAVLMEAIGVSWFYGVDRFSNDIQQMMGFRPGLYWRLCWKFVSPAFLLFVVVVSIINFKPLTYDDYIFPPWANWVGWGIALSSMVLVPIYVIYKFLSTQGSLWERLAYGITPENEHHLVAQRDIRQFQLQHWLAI
# Protocol: Source: Human recombinant MDCK cells;
# Incubation Time/Temp: 3 hours @ 4° C.;
# (§2) Incubation Buffer: 50 mM Tris-HCl, pH 7.4, 100 mM NaCl, 1 μM Leupeptin, 10 μM PMSF;
# Non-Specific Ligand: 10.0 μM Desipramine;
# (§3) Quantitation Method: Radioligand Binding;
# [3] = biological target: T1, serotonin transporters (SERT) (Homo sapiens, UniProt P31645); test: PET study of SERT occupancy with 11C-MADAM in healthy male volunteers; type: in vivo; settings: read-out: SERT RO %; for receptor occupancy at 10 mg: 10 mg once a day; for receptor occupancy at 30 mg: 30 mg once a day; for receptor occupancy at 45 mg: 45 mg once a day (30 mg for 3 days first); for receptor occupancy at 60 mg: 60 mg once a day (30 mg for 3 days first)
# T1 construct: evaluate in healthy male volunteers with respect to safety, tolerability and pharmacokinetics as well as DAT and SERT occupancy; from tissue; host or cells: living human brain (striatum, thalamus), PET in healthy male volunteers
# T1 sequence (P31645 whole entry): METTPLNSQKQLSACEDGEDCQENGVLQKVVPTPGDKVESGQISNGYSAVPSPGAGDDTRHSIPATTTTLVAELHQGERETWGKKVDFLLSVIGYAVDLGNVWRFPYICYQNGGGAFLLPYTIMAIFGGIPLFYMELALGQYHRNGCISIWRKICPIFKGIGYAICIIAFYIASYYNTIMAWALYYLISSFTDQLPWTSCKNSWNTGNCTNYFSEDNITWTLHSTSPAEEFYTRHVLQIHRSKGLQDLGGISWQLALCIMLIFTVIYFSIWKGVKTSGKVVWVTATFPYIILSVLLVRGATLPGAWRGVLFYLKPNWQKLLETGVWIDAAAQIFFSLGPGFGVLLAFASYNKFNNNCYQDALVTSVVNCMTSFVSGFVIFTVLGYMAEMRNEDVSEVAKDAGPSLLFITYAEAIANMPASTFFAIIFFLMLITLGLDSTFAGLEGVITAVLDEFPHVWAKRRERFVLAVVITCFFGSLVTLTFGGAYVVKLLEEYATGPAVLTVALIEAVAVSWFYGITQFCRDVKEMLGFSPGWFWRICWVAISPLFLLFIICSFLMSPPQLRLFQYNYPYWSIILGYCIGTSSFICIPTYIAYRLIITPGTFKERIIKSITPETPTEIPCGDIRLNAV
# Text: The PET study was a part of a strategy in previous clinical development of the compound of formula I to evaluate in healthy male volunteers with respect to safety, tolerability and pharmacokinetics as well as DAT and SERT occupancy.
# The relationship between plasma the compound of formula I concentration and SERT occupancies, using the individual values, is presented in FIG. 8 and FIG. 9. The numeric values for the individual SERT and […] occupancy and the corresponding plasma concentrations are tabulated in Example 12.
# as §1
# [4] = biological target: Transporter, Dopamine (DAT) (Homo sapiens, UniProt Q01959); test: DAT radioligand binding ([125I] RTI-55), Eurofins; settings: read-out: DAT, % inhibition, 10 nM compound
# Sequence of Transporter, Dopamine (DAT) (Q01959 whole entry): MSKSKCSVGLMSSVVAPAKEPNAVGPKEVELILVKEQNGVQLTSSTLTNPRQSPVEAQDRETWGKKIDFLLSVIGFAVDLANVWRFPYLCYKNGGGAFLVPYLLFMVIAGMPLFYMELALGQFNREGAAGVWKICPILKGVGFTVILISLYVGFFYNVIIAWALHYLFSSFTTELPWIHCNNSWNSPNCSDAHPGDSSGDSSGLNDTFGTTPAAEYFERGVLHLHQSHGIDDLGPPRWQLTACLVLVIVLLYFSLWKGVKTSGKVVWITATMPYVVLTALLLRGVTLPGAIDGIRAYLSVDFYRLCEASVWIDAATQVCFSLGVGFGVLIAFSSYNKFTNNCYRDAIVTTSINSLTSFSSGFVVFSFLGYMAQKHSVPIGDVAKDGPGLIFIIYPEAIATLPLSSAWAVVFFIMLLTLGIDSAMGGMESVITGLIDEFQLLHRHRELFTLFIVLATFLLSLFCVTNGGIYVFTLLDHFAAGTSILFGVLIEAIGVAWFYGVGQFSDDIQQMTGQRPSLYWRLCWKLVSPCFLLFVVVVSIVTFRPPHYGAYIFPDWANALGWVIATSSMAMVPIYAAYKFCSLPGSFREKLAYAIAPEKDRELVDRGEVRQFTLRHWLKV
# Protocol: Source: Human recombinant CHO—S cells;
# Incubation Time/Temp: 3 hours @ 4° C.;
# as §2
# Non-Specific Ligand: 10.0 μM Nomifensine;
# Specific Binding: 90% (Historical Values);
# as §3
# [5] = biological target: T2, dopamine transporters (DAT) (Homo sapiens, UniProt Q01959); test: PET study of striatal DAT occupancy with 11C-PE2I in healthy male volunteers; type: in vivo
# T2 construct: evaluate in healthy male volunteers with respect to safety, tolerability and pharmacokinetics as well as DAT and SERT occupancy; from tissue; host or cells: living human brain (striatum), PET in healthy male volunteers
# T2 sequence (Q01959 whole entry): as above
# Text: The PET study was a part of a strategy in previous clinical development of the compound of formula I to evaluate in healthy male volunteers with respect to safety, tolerability and pharmacokinetics as well as DAT and SERT occupancy. […]
# as §1
# [6] = 24 h, day 14, 24 h post last dose
structure (smiles),measurement,setting,value
"Clc1ccc(C2CNCc3cc(-c4ccc5ncnn5c4)ccc32)cc1Cl (centres unmarked) [Formula I, 7-([1,2,4]triazolo[1,5-a]pyridin-6-yl)-4-(3,4-dichlorophenyl)-1,2,3,4-tetrahydroisoquinoline]",concentration at 4 h,"[1]; 3 mg, SERT cohort, 3 mg once a day, day 10, 4 h post dose",68 ng/mL
same,concentration at 24 h,"[1]; 3 mg, SERT cohort, 3 mg once a day",52 ng/mL
same,concentration at 4 h,"[1]; 10 mg, DAT cohort, 10 mg once a day, day 10, 4 h post dose",204 ng/mL
same,concentration at 24 h,"[1]; 10 mg, DAT cohort, 10 mg once a day",141 ng/mL
same,concentration at 4 h,"[1]; 10 mg, SERT cohort, 10 mg once a day, day 10, 4 h post dose",201 ng/mL
same,concentration at 24 h,"[1]; 10 mg, SERT cohort, 10 mg once a day",127 ng/mL
same,concentration at 4 h,"[1]; 30 mg, SERT cohort, 30 mg once a day, day 10, 4 h post dose",691 ng/mL
same,concentration at 24 h,"[1]; 30 mg, SERT cohort, 30 mg once a day",668 ng/mL
same,concentration at 4 h,"[1]; 45 mg, DAT cohort, 45 mg once a day (30 mg for 3 days first), day 10, 4 h post dose",809 ng/mL
same,concentration at 24 h,"[1]; 45 mg, DAT cohort, 45 mg once a day (30 mg for 3 days first)",647 ng/mL
same,concentration at 4 h,"[1]; 45 mg, SERT cohort, 45 mg once a day (30 mg for 3 days first), day 10, 4 h post dose",1160 ng/mL
same,concentration at 24 h,"[1]; 45 mg, SERT cohort, 45 mg once a day (30 mg for 3 days first)",940 ng/mL
same,concentration at 4 h,"[1]; 60 mg, DAT cohort, 60 mg once a day (30 mg for 3 days first), day 10 (subject 77: day 11), 4 h post dose",1340 ng/mL
same,concentration at 24 h,"[1]; 60 mg, DAT cohort, 60 mg once a day (30 mg for 3 days first)",920 ng/mL
same,inhibition at 0.01 µM,[2],35%
same,receptor occupancy at 10 mg,"[3]; 4 h, day 10, 4 h post dose",53%
same,receptor occupancy at 30 mg,"[3]; 4 h, day 10, 4 h post dose",71%
same,receptor occupancy at 45 mg,"[3]; 4 h, day 10, 4 h post dose",73%
same,receptor occupancy at 60 mg,"[3]; 4 h, day 10, 4 h post dose",70%
same,receptor occupancy at 10 mg,[3]; [6],47%
same,receptor occupancy at 30 mg,[3]; [6],69%
same,receptor occupancy at 45 mg,[3]; [6],73%
same,receptor occupancy at 60 mg,[3]; [6],76%
same,inhibition at 0.01 µM,[4],47%
same,DAT RO %,"[5]; 10 mg once a day, day 10, 4 h post dose",12% and 21% and 18%
same,DAT RO %,"[5]; 30 mg once a day, day 10, 4 h post dose",22% and 43% and 36%
same,DAT RO %,"[5]; 30 mg once a day, day 14, 24 h post last dose",26% and 23% and 43%
same,DAT RO %,"[5]; 45 mg once a day (30 mg for 3 days first), day 10, 4 h post dose",42% and 44% and 48%
same,DAT RO %,"[5]; 45 mg once a day (30 mg for 3 days first), day 14, 24 h post last dose",36% and 41% and 43%
same,DAT RO %,"[5]; 60 mg once a day (30 mg for 3 days first), day 10 (subject 77: day 11), 4 h post dose",60% and 59%
same,DAT RO %,"[5]; 60 mg once a day (30 mg for 3 days first), day 14, 24 h post last dose",48% and 49%
same,DAT occupancy,[5]; following multiple doses of 60 mg,up to 60%

# Source: patent publication US20230002377A1, “THERAPEUTIC COMBINATIONS OF DRUGS AND METHODS OF USING THEM” (HARMONY BIOSCIENCES, LLC, priority 2020, published 2023)
